In data set [1] the test system is spinal nerve ligation model of neuropathic pain. Particulars: rats; Dogrul et al., Pain (2003); cited from earlier work.
For the next data set, the target named is hERG K+ channel (Homo sapiens, UniProt Q12809). The data set can be described thus: hERG K+ Channel Block. As to conditions: human. The data set is classed as cell-based. (In general: Block of hERG is tested as a sign of cardiac risk.)
For data set [2], the target named is T1, human α1G T-type channels (Homo sapiens, UniProt O43497).
T1 construct: expressed in transfected cells; host or cells: HEK 293
The data set can be described thus: T-type calcium channel block, whole cell patch clamp in HEK cells (α1G). Particulars: HEK cells, patch clamp, mainly non-inactivated protocol; values above 10 μM shown as 10 μM, below 0.30 μM shown as 0.30 μM; read-out: T-type Calcium Channel Block α1G IC50. The data set is classed as cell-based. For orientation: Patch clamp records ionic current or voltage across a cell membrane.

Data set [3] has as its target T2, human α1H T-type channels (Homo sapiens, UniProt O95180).
T2 construct: expressed in transfected cells; host or cells: HEK 293
The data set can be described thus: T-type calcium channel block, whole cell patch clamp in HEK cells (α1H). The data set is classed as cell-based. As to conditions: HEK cells, patch clamp, mainly non-inactivated protocol; values above 10 μM shown as 10 μM; read-out: T-type Calcium Channel Block α1H IC50.

Data set [4] relates to absence seizures in GAERS rats. The data set can be described thus: GAERS (Genetic Absence Epilepsy Rats from Strasbourg) epilepsy model, EEG spike and wave discharges. As to conditions: for percentage of time in seizure activity compared to both baseline and vehicle / Percent Recording Time in Seizure Activity, Post-injection: IP 30 mg/kg; for Percent Recording Time in Seizure Activity, Baseline: 60 minutes pre-injection EEG recording; for Percent Recording Time in Seizure Activity, Post-injection: 120 minutes post-injection EEG recording starting 15 minutes post-drug. Type of data set: in vivo, rat. The source says: The GAERS (Genetic Absence Epilepsy Rats from Strasbourg) is noted for its long and frequently recurring absence seizure episodes. […] Eight female GAERS rats, bred in the Ludwig Institute for Cancer Research, were used for this study. Rats weighed between 180 and 250 g and aged between 18 and 26 weeks at the start of the experiment.
Electrodes were made in our laboratory by soldering together gold-plated sockets (220-S02 Ginder Scientific, VA, Canada), stainless steel teflon coated wire (SDR clinical technology, NSW, Australia) and a small stainless steel screw (1.4×3 mm, Mr. Specks, Australia). Animals were anaethetised with inhalation of Isoflurane in equal parts of medical air and oxygen (5% induction, 2.5-1.5% maintenance) or alternatively by intraperitoneal injection with xylazine (10 mg/kg) and ketamine (75 mg/kg). The animals were fixated in a stereotaxic frame by means of ear bars. A midline incision on the scalp was made, skin and connective tissue was scraped and pushed laterally to expose underlying skull. 6 holes were drilled bilaterally, 2 in the frontal bone and 4 in the parietal bone, approximately 2 mm anterior to bregma, and 4 and 10 mm posterior to bregma. 6 electrodes were implanted in the holes, and gold-plated sockets were clipped into 9-pin ABS plug (GS09PLG-220, Ginder Scientific, Canada). 2 two side-anchoring screws were placed laterally into skull to improve strength of cap fixation, then caps were held in place with dental cement.
Post-operatively, animals were given the analgesic Rimadyl (4 mg/kg), placed in their cages on a heat mat, and observed until recovery. Rats were caged separately throughout the study, weighed and health-checked daily, and were allowed 7 days to recover prior to commencement of the experimental procedures. Rats were allowed free access to rodent chow (brand, WA stock feeders) and water under 12:12 light dark conditions in the Biological Research Facility of the Department of Medicine (RMH).
Prior to first drug treatment, rats were tested for absence-type seizures, which are accompanied by generalised spike and wave discharges (SWD) on an EEG recording. Testing, and all further experiments were performed in a quiet, well lit room with rats in their home cages. Rats were connected via 6-channel wire cables, which were cut and soldered to 6 gold-plated pins inserted into a 9 pin socket. Cables were connected to a computer running Compumedics™ EEG acquisition software (Melbourne, Australia). […] On week 1, day 1 after the acclimation period following surgical implantation of subdural electrodes, 4 animals (#1-4) were habituated with the cable connected for 15 minutes, then had their SWDs recorded for 60 minutes as baseline. Immediately following baseline, rats were given one of the test, reference or control articles according to the treatment schedule, and target period was recorded from 15 after injection for 120 minutes. Animals were monitored throughout the experiment, and were kept quietly wakeful during baseline and target periods
The seizure expression for the 60 minutes pre-injection and 120 minutes post-injection EEG recording (starting 15 minutes post-drug administration) was quantified by marking the start and finish of the burst of SWDs. This was done with the assistance of SWCFinder® software which has been custom designed to quantitate GAERS seizures, and researchers were blinded to the nature of the drug administered, whereby the analysis was performed blinded. Standard criteria for GAERS seizures is an SWD burst of amplitude of more than three times baseline, a frequency of 7 to 12 Hz, and a duration of longer than 0.5 s. From this, the total percent time spent in seizure over the 120 minutes post-injection EEG recording was determined (percentage time in seizure) as the primary outcome variable.

One may read the IC50 as the concentration needed to halve the response being measured.

T2 sequence (O95180 whole entry): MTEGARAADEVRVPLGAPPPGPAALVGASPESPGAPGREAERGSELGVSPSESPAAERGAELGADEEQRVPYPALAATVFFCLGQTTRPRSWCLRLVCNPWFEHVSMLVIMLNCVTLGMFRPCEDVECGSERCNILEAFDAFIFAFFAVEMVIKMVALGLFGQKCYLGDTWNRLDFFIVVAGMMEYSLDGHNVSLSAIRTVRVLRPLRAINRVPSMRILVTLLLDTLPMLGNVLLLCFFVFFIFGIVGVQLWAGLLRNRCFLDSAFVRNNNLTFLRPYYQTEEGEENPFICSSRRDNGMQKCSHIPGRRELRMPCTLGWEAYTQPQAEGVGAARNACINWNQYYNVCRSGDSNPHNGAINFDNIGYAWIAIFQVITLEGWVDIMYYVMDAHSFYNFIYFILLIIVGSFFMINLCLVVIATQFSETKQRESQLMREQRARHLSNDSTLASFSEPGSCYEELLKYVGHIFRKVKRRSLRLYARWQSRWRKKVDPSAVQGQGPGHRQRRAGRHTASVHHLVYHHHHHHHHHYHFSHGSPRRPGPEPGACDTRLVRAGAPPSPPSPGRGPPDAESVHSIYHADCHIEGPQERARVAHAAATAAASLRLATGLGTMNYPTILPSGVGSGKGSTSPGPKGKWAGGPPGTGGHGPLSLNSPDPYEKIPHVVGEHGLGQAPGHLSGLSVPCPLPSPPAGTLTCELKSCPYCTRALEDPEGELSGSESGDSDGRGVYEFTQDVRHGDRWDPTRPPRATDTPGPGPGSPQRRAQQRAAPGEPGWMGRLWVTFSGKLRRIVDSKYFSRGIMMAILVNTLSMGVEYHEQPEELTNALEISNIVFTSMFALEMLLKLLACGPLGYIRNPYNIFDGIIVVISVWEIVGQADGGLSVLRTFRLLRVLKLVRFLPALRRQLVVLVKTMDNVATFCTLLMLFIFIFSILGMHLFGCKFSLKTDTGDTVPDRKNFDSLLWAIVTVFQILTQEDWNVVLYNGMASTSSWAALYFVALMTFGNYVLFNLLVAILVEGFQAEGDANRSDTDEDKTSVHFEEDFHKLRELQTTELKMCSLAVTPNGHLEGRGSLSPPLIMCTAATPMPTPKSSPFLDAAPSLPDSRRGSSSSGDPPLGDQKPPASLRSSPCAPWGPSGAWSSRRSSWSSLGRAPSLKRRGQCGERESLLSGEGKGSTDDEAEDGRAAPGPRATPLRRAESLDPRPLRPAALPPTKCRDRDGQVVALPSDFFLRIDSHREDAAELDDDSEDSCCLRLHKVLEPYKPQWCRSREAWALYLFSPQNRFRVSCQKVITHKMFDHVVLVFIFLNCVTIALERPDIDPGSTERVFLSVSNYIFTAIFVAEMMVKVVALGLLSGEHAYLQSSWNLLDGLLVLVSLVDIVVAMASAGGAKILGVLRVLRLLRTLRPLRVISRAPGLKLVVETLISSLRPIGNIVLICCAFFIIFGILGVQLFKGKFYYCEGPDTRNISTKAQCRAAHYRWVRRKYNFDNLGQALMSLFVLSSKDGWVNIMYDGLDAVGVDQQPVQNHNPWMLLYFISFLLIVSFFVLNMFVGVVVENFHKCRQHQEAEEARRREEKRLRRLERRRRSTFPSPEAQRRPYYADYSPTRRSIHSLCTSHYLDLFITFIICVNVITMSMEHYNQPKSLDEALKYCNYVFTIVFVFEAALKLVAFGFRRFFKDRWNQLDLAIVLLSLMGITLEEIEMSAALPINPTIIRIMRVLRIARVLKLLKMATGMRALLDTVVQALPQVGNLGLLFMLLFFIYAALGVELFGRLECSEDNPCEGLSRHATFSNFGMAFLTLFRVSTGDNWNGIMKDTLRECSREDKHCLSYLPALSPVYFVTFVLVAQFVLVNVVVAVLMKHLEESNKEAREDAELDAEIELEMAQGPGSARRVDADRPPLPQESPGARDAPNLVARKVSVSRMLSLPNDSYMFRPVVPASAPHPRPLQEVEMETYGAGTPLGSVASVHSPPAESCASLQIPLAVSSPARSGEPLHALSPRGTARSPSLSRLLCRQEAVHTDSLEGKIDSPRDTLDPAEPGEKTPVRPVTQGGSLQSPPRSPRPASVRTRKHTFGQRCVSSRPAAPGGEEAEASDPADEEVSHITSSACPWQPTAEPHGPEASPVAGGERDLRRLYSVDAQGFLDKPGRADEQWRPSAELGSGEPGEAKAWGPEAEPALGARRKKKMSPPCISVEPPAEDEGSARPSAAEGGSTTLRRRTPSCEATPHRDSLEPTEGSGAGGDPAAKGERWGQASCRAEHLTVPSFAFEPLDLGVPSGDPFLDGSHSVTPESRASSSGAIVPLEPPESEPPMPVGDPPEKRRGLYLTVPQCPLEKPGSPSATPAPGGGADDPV
T1 sequence (O43497 whole entry): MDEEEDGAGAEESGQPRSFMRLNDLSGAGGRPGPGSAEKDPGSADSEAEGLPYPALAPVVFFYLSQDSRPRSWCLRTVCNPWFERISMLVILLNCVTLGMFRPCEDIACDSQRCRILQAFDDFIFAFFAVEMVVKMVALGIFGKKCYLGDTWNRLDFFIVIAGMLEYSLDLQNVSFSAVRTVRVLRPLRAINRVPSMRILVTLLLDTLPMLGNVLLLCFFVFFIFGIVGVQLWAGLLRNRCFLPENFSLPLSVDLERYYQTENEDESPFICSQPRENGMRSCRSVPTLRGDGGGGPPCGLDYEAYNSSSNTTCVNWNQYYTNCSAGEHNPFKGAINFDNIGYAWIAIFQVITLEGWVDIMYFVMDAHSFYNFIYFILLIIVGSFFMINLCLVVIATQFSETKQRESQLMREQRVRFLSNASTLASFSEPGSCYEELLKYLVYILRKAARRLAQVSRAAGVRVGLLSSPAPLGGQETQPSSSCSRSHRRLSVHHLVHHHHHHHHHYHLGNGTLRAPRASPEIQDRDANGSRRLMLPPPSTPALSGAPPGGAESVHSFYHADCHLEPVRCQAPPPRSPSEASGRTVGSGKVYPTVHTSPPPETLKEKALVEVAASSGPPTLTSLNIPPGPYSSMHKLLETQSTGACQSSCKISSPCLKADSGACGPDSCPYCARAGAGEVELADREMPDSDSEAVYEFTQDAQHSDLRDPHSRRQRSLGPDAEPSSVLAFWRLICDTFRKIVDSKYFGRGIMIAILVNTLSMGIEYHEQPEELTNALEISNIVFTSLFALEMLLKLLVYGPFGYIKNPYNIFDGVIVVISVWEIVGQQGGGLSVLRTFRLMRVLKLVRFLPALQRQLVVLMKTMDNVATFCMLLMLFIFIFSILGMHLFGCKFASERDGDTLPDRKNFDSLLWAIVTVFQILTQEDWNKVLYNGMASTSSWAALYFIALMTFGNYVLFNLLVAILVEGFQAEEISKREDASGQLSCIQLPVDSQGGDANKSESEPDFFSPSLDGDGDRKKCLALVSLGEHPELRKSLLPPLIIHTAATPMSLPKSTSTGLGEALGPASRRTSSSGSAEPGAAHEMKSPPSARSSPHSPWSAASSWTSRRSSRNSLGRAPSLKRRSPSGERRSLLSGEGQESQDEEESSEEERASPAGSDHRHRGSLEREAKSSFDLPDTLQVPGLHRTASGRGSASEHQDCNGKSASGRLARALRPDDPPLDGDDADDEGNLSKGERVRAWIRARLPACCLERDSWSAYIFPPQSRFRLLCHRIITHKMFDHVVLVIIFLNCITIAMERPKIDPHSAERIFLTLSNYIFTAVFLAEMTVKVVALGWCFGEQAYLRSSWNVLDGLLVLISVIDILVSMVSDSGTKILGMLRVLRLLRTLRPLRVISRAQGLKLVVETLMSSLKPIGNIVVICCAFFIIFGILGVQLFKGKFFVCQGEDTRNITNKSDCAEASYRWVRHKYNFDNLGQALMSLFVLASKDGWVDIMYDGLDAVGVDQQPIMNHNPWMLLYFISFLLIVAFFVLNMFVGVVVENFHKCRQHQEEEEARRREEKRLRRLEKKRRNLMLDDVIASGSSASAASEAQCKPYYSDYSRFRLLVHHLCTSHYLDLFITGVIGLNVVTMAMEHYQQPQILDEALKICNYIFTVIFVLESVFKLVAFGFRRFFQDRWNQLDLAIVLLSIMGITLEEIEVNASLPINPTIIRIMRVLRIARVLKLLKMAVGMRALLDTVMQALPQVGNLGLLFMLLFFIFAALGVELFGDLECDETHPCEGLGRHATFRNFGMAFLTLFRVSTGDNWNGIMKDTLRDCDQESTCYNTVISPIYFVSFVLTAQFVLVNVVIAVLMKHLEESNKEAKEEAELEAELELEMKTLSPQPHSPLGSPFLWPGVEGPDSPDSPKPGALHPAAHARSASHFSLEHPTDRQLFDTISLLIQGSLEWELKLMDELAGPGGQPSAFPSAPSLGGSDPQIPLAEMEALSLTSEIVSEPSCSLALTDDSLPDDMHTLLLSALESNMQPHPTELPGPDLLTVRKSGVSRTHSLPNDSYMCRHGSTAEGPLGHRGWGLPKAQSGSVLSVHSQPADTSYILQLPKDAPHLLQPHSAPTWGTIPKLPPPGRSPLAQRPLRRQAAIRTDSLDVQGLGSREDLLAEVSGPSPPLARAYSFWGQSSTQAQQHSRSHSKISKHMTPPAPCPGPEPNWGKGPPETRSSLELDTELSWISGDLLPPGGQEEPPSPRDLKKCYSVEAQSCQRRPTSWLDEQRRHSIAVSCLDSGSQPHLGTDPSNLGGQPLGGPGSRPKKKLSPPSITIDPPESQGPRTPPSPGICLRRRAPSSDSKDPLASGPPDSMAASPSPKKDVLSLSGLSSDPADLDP

In the case of `COCC(=O)O[C@]1(CCN(C)CCCc2nc3ccccc3[nH]2)CCc2cc(F)ccc2[C@@H]1C(C)C` [mibefradil], the “anti-hyperalgesic activity in the spinal nerve ligation model of neuropathic pain” value in data set [1] is reported as “anti-hyperalgesic activity”.

In the case of `CCC1(C)CC(=O)NC1=O` (stereo not shown) [ethosuximide], the “anti-hyperalgesic activity in the spinal nerve ligation model of neuropathic pain” value in data set [1] was “anti-hyperalgesic activity”.

Consider `COc1cc(OC)cc(C(=O)NCC2CCN(CC(=O)NC(C)(C)C)CC2)c1` [Compound 368, N-((1-(2-(tert-butylamino)-2-oxoethyl)piperidin-4-yl)methyl)-3,5-dimethoxybenzamide], for which the IC50 on hERG K+ channel is not below 8.3 µM; in data set [2], less than 0.3 µM; in data set [3] it was 0.17 µM. Further, the “percentage of time in seizure activity compared to both baseline and vehicle” value in data set [4] is “significant decrease”.

`CC(C)(C)NC(=O)CN1CCC(CNC(=O)c2cc(F)cc(F)c2)CC1` [Compound 365, N-((1-(2-(tert-butylamino)-2-oxoethyl)piperidin-4-yl)methyl)-3,5-difluorobenzamide]: the IC50 in data set [2] stood at 0.8 µM; in data set [3], 0.56 µM. Moreover, in data set [4], the “percentage of time in seizure activity compared to both baseline and vehicle” value is “significant decrease”.

On to `CC(C)(C)NC(=O)CN1CCC(CNC(=O)c2cccc(Cl)c2)CC1` [Compound 364, N-((1-(2-(tert-buylamino)-2-oxoethyl)piperidin-4-yl)methyl)-3-chlorobenzamide], for which the IC50 against hERG K+ channel is not below 8.3 µM; in data set [2] it was less than 0.3 µM; in data set [3], 0.23 µM. Further, the “Percent Recording Time in Seizure Activity, Baseline” value in data set [4] is listed as 12.12 ± 1.82%. Moreover, the “Percent Recording Time in Seizure Activity, Post-injection” value in data set [4] stood at 0.45 ± 0.20%.

On to `CC(C)(C)NC(=O)CN1CCC(CNC(=O)c2cc(F)cc(Cl)c2)CC1` [Compound 367, N-((1-(2-(tert-butylamino)-2-oxoethyl)piperidin-4-yl)methyl)-3-chloro-5-fluorobenzamide], for which the concentration for half-maximal inhibition (IC50) is not below 8.3 µM against hERG K+ channel, less than 0.3 µM in data set [2] and 0.05 µM in data set [3]. Also, the “Percent Recording Time in Seizure Activity, Baseline” value in data set [4] is listed as 9.99 ± 2.07%. In addition, the “Percent Recording Time in Seizure Activity, Post-injection” value in data set [4] is reported as 0.87 ± 0.44%.
